# Patent US6124078A, “Photo-decoloring dye, a binder resin composition containing the same and photo-recording material” (Konica Corporation, priority 1998, dated 2000)
# Key:
# Type in all cases: physicochemical
# [1] = Solubility of dye in binder resin composition (polyvinyl butyral / methyl ethyl ketone), precipitation after a day at 15° C.; conditions: binder resin composition: polyvinyl butyral resin (Esrex BX-1) 100 mg, methyl ethyl ketone 3.0 ml; stood a day at 15° C. shielded from light
# Protocol: Mixing the following raw materials, a binder resin composition containing the photo-decoloring dye was prepared so as to obtain sample 3-1.
# Photo-decoloring dye 7 0.3 mmol
# Polyvinyl butyral resin (Esrex BX-1)
# Methyl ethyl ketone 3.0 ml
# Samples 3-2 to 3-12 were obtained in the same way in which sample 3-1 was obtained except replacing the photo-decoloring dye 7 by the following dyes described later. Solubility was evaluated by varying addition amount of each dye. The dyes except for comparative dyes show the photo-decoloring dyes according to the invention. The chemical structures of the comparative dyes A and B (these dyes are used in example 5) are shown below.
# After preparing binder resin compositions in which addition amount of the photo-decoloring dyes was increased in serial turn, said binder resin compositions were aloowed to stand under the condition of shielding a light for a day at 15° C. When slight precipitation of the photo-decoloring dyes in said binder resin compositions was observed, the solubility of said photo-decoloring dyes was evaluated as unacceptable.
# The solubility of the photo-decoloring dyes was evaluated based on the following criteria in response to the addition amount of said photo-decoloring dyes.
# 4: Precipitation was not observed in an addition amount of not less than 0.9 mmol.
# [2] = Storage stability of photo-recording material (60° C., 200 hours, light-shielded); conditions: (density after storage/initial density)×100, packed with black paper
# From the text: The binder resin composition containing the photo-decoloring dye used for making sample 3-1 was coated on a polyethylenenaphthalate base having thickness of 4.0 μm by using a wire bar in a coating amount of 2.5 g/m^2 after drying so as to obtain a photo-recording material consisting of a photo-decoloring layer on the polyethylenenaphthalate film. On a back side of said polyethylenenaphthalate base was coated a nitrocellulose layer containing a silicone modified urethane resin (SP-2105, produced by Dainichiseika Co., Ltd.) as a sticking-preventing layer. Thus obtained sample is termed sample 4-1.
# By replacing the photo-decoloring dye 7 used in sample 4-1 by such photo-decoloring dyes as described later, sample 4-2 to 4-16 were obtained. Both photo-decoloring ability and storage stability of these dyes were evaluated.
# Photo-shielded samples by packing them with black paper were allowed to stand at 60° C. in a thermostatic oven for 200 hours. Storage stability was indicated as follows.
# Storage stability=(density after storage/initial density)×100 (%)
# [3] = Absorption maximum and absorption coefficient in ethyl acetate
Compound,Storage stability [2] [%],εmax [3],λmax [3] [nm],Solubility [1]
CCCCc1nnc2n1N=C(C(C)(C)C)C2=Nc1ccc(O)cc1 [A],18,–,–,2 (Slight precipitation was observed in an addition amount of not less than 0.3 to less than 0.6 mmol.)
CCC(C)(C)c1ccc(OCC(=O)Nc2ccnc(-c3cnc4n3N=C(C(C)(C)C)C4=Nc3cc(Cl)c(O)c(Cl)c3)c2)c(C(C)(C)CC)c1 [compound 33],77,–,–,4 (Precipitation was not observed in an addition amount of not less than 0.9 mmol.)
CCN(CC)c1ccc(N=C2C=CC(=O)c3ccccc32)cc1 [E],85,–,–,–
CCCCc1nnc2c(=Cc3cc(Cl)c(O)c(Cl)c3)c(C(C)(C)C)nn12 [B],20,–,–,2 (Slight precipitation was observed in an addition amount of not less than 0.3 to less than 0.6 mmol.)
CCCCCCCCCCCCS(=O)(=O)CCCc1nnc2c(=Cc3cc(Cl)c(O)c(Cl)c3)c(C(C)(C)C)nn12 [compound 58],80,105300,540,4 (Precipitation was not observed in an addition amount of not less than 0.9 mmol.)
CN1/C(=C\C=C\C2=[N+](C)c3ccccc3C2(C)C)C(C)(C)c2ccccc21 [F],15,–,–,–
CCCCCCCCCCCCS(=O)(=O)CCCc1nnc2c(=Cc3cc(Cl)c(O)c(Cl)c3)c(C(C)(C)C)nn12 [compound 78],–,94800,543,–
CCN(CC)c1ccc(N=C(C(C)=O)C(=O)Nc2ccccc2)c(C)c1 [C],95,–,–,–
CCN(CC)c1ccc(N=C2C(=O)N(c3ccccc3)N=C2C)cc1 [D],80,–,–,–
CCCCCCCCCCCCS(=O)(=O)NCCc1nc2c(=Cc3cc(Cl)c(O)c(Cl)c3)c(C(C)(C)C)nn2n1 [compound 47],82,–,–,4 (Precipitation was not observed in an addition amount of not less than 0.9 mmol.)

# Second part, led by results:
Storage stability [2] [%],εmax [3],λmax [3] [nm],Compound,Solubility [1]
88,93700,556,CCCCCCCCCCCCS(=O)(=O)CCCc1nnc2n1N=C(C(C)(C)C)C2=Nc1cc(Cl)c(O)c(Cl)c1 [compound 7],4 (Precipitation was not observed in an addition amount of not less than 0.9 mmol.)
75,–,–,CCCCCCCCCCCCOc1ccc(S(=O)(=O)NCC(C)(C)c2nnc3n2N=C(C(C)(C)C)C3=Nc2cc(Cl)c(O)c(Cl)c2)cc1 [compound 13],3 (Slight precipitation was observed in an addition amount of not less than 0.6 to less than 0.9 mmol.)
80,–,–,CCC(Oc1ccc(C(C)(C)CC)cc1C(C)(C)CC)C(=O)NCCC(C)c1nnc2n1N=C(C(C)(C)C)C2=Nc1cc(Cl)c(O)c(Cl)c1 (stereo not drawn) [compound 11],4 (Precipitation was not observed in an addition amount of not less than 0.9 mmol.)
85,–,–,CCCCCCCCCCCCC(Oc1ccc(OC(C)=O)c(C(C)(C)C)c1)C(=O)NCCc1nnc2n1N=C(C)C2=Nc1cc(Cl)c(O)c(Cl)c1 (stereo not drawn) [compound 17],4 (Precipitation was not observed in an addition amount of not less than 0.9 mmol.)
90,–,–,CCCCC(Oc1ccc(C(C)(C)CC)cc1C(C)(C)CC)C(=O)Nc1ccc2nc3n(c2c1)N=C(C)C3=Nc1cc(Cl)c(O)c(Cl)c1 (stereo not drawn) [compound 32],3 (Slight precipitation was observed in an addition amount of not less than 0.6 to less than 0.9 mmol.)
